Measurements from US12441691B2 (Cytokinetics, Inc., priority 2020, dated 2025).

tested on: rabbit skeletal myofibrils (fast skeletal myofibrils); test: Activation of fast skeletal myofibrils (PUMA assay, AC1.4); assay type: biochemical; conditions: calcium at pCa25, AC1.4 = concentration at which the compound increased the enzymatic activity
Outline: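 In 12 mM PIPES pH 6.8 with 2 mM MgCl2 and 1 mM DTT, Triton-washed rabbit skeletal myofibrils were run at the pCa25 calcium level. Myosin-made ADP was recycled through a PK/LDH coupled system; NADH loss read at 340 nm.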

First: CC[C@H](C)[C@H]1C(=O)Nc2ccc(F)cc2CN1C(=O)c1ccn[nH]1 [Compound 70, (S)-3-((S)-sec-butyl)-7-fluoro-4-(1H-pyrazole-5-carbonyl)-1,3,4,5-tetrahydro-2H-benzo[e][1,4]diazepin-2-one]
Second: CC[C@H](C)[C@H]1C(=O)Nc2ccc(F)cc2CN1C(=O)NC [Compound 348, (S)-3-((S)-sec-butyl)-7-fluoro-N-methyl-2-oxo-1,2,3,5-tetrahydro-4H-benzo[e][1,4]diazepine-4-carboxamide]
The AC1.4 of the first is 3.1-fold lower: 0.23 µM for the first, 0.72 µM for the second.

Going from `CC[C@H](C)[C@H]1C(=O)Nc2cnccc2N1/C(=N/C#N)Oc1ccccc1` [Compound 380, phenyl (S,Z)-2-((S)-sec-butyl)-N-cyano-3-oxo-3,4-dihydropyrido[3,4-b]pyrazine-1(2H)-carbimidate] to `CC[C@H](C)[C@H]1C(=O)Nc2ccccc2CN1C(=O)c1cnn(C)c1` [Compound 46, (S)-3-((S)-sec-butyl)-4-(1-methyl-1H-pyrazole-4-carbonyl)-1,3,4,5-tetrahydro-2H-benzo[e][1,4]diazepin-2-one], the AC1.4 falls from 1.25 µM to 0.13 µM (9.6-fold).

`CC[C@H](C)[C@H]1C(=O)Nc2ccccc2CN1C(=O)N1CCCC1c1nc(C)no1` (stereo partly drawn) [Compound 244, (3S)-3-((S)-sec-butyl)-4-(2-(3-methyl-1,2,4-oxadiazol-5-yl)pyrrolidine-1-carbonyl)-1,3,4,5-tetrahydro-2H-benzo[e][1,4]diazepin-2-one] and `CC[C@H](C)[C@H]1C(=O)Nc2ccccc2CN1C(=O)N1CCC[C@H]1C(=O)O` [Compound 236, ((S)-3-((S)-sec-butyl)-2-oxo-2,3,4,5-tetrahydro-1H-benzo[e][1,4]diazepine-4-carbonyl)-L-proline] are within 1.5-fold of each other in AC1.4: 2.43 µM for the first, 3.43 µM for the second.

First: CC[C@H](C)[C@H]1C(=O)Nc2ccccc2CN1C(=O)Nc1nnc(C)s1 [Compound 283, (S)-3-((S)-sec-butyl)-N-(5-methyl-1,3,4-thiadiazol-2-yl)-2-oxo-1,2,3,5-tetrahydro-4H-benzo[e][1,4]diazepine-4-carboxamide]
Second: CC[C@H](C)[C@H]1C(=O)Nc2ccccc2CN1C(=O)NC [Compound 31, (S)-3-((S)-sec-Butyl)-N-methyl-2-oxo-1,2,3,5-tetrahydro-4H-benzo[e][1,4]diazepine-4-carboxamide]
The AC1.4 of the first is 2.3-fold lower: 0.09 µM for the first, 0.21 µM for the second.

`CC[C@H](C)[C@H]1C(=O)Nc2ccccc2CN1C(=O)N(C)CCS(C)(=O)=O` [Compound 240, (S)-3-((S)-sec-butyl)-N-methyl-N-(2-(methylsulfonyl)ethyl)-2-oxo-1,2,3,5-tetrahydro-4H-benzo[e][1,4]diazepine-4-carboxamide] and `CC[C@H](C)[C@H]1C(=O)Nc2ccccc2CN1C(=O)CN` [Compound 17, (S)-3-((S)-sec-Butyl)-4-glycyl-1,3,4,5-tetrahydro-2H-benzo[e][1,4]diazepin-2-one] are within 1.5-fold of each other in AC1.4: 2.87 µM for the first, 2.83 µM for the second.

Going from `CC[C@H](C)[C@H]1C(=O)Nc2ccccc2CN1C(=O)NCc1ccccc1` [Compound 276, (S)-N-benzyl-3-((S)-sec-butyl)-2-oxo-1,2,3,5-tetrahydro-4H-benzo[e][1,4]diazepine-4-carboxamide] to `CC[C@H](C)[C@H]1C(=O)Nc2ccccc2CN1C(=O)NCC(=O)NC` [Compound 206, (S)-3-((S)-sec-butyl)-N-(2-(methylamino)-2-oxoethyl)-2-oxo-1,2,3,5-tetrahydro-4H-benzo[e][1,4]diazepine-4-carboxamide], the AC1.4 rises from 0.24 µM to 4.98 µM (21-fold).

First: CC[C@H](C)[C@H]1C(=O)Nc2ccccc2CN1S(C)(=O)=O [Compound 26, (S)-3-((S)-sec-Butyl)-4-(methylsulfonyl)-1,3,4,5-tetrahydro-2H-benzo[e][1,4]diazepin-2-one]
Second: CC[C@H](C)[C@H]1C(=O)Nc2ccc(F)cc2CN1S(N)(=O)=O [Compound 345, (S)-3-((S)-sec-butyl)-7-fluoro-2-oxo-1,2,3,5-tetrahydro-4H-benzo[e][1,4]diazepine-4-sulfonamide]
The AC1.4 of the first is 3.1-fold lower: 0.78 µM for the first, 2.43 µM for the second.

First: CC[C@H](C)[C@H]1C(=O)Nc2ccccc2CN1C(=O)N[C@@H]1CCNC1=O [Compound 209, (S)-3-((S)-sec-butyl)-2-oxo-N-((R)-2-oxopyrrolidin-3-yl)-1,2,3,5-tetrahydro-4H-benzo[e][1,4]diazepine-4-carboxamide]
Second: CC[C@H](C)[C@H]1C(=O)Nc2ccccc2CN1C(=O)N[C@@H]1CCNC1 [Compound 307, (S)-3-((S)-sec-butyl)-2-oxo-N-((R)-pyrrolidin-3-yl)-1,2,3,5-tetrahydro-4H-benzo[e][1,4]diazepine-4-carboxamide]
The AC1.4 of the first is 8-fold higher: 4.17 µM for the first, 0.52 µM for the second.

Compared with `CC[C@H](C)[C@H]1C(=O)Nc2ccccc2[C@H](CO)N1C(N)=O` (single isomer, unassigned) [Compound 37], `CC[C@H](C)[C@H]1C(=O)Nc2ccccc2[C@@H]2COC(=O)N12` (single isomer, unassigned) [Compound 36] is 2.9-fold lower in AC1.4: 0.26 µM for the first, 0.09 µM for the second.

`CC[C@H](C)[C@H]1C(=O)Nc2ccccc2CN1C(=O)c1ccc(=O)n(CCO)c1` [Compound 170, (S)-3-((S)-sec-butyl)-4-(1-(2-hydroxyethyl)-6-oxo-1,6-dihydropyridine-3-carbonyl)-1,3,4,5-tetrahydro-2H-benzo[e][1,4]diazepin-2-one] and `CC[C@H](C)[C@H]1C(=O)Nc2ccccc2CN1C(=O)c1cnnn1C` [Compound 159, (S)-3-((S)-sec-butyl)-4-(1-methyl-1H-1,2,3-triazole-5-carbonyl)-1,3,4,5-tetrahydro-2H-benzo[e][1,4]diazepin-2-one] are within 1.5-fold of each other in AC1.4: 0.79 µM for the first, 0.59 µM for the second.

Compared with `CC[C@H](C)[C@H]1C(=O)Nc2ccc(F)cc2CN1C(=O)N1CC[C@H](O)C1` [Compound 347, (S)-3-((S)-sec-butyl)-7-fluoro-4-((S)-3-hydroxypyrrolidine-1-carbonyl)-1,3,4,5-tetrahydro-2H-benzo[e][1,4]diazepin-2-one], `CC[C@H](C)[C@H]1C(=O)Nc2ccc(F)cc2CN1C(=O)NC1CCN(CCO)CC1` [Compound 351, (S)-3-((S)-sec-butyl)-7-fluoro-N-(1-(2-hydroxyethyl)piperidin-4-yl)-2-oxo-1,2,3,5-tetrahydro-4H-benzo[e][1,4]diazepine-4-carboxamide] is 3.1-fold lower in AC1.4: 3.59 µM for the first, 1.17 µM for the second.

Going from `CC[C@H](C)[C@H]1C(=O)Nc2cnccc2CN1c1c(NCCO)c(=O)c1=O` [Compound 374, 3-((S)-3-((S)-sec-butyl)-2-oxo-1,2,3,5-tetrahydro-4H-pyrido[3,4-e][1,4]diazepin-4-yl)-4-((2-hydroxyethyl)amino)cyclobut-3-ene-1,2-dione] to `CC[C@H](C)[C@H]1C(=O)Nc2cnccc2CN1c1c(NC)c(=O)c1=O` [Compound 376, 3-((S)-3-((S)-sec-butyl)-2-oxo-1,2,3,5-tetrahydro-4H-pyrido[3,4-e][1,4]diazepin-4-yl)-4-(methylamino)cyclobut-3-ene-1,2-dione], the AC1.4 falls from 0.42 µM to 0.18 µM (2.3-fold).

Going from `CC[C@H](C)[C@H]1C(=O)Nc2cccc(Cl)c2CN1C(=O)N1CC(O)C1` [Compound 66, (S)-3-((S)-sec-butyl)-6-chloro-4-(3-hydroxyazetidine-1-carbonyl)-1,3,4,5-tetrahydro-2H-benzo[e][1,4]diazepin-2-one] to `CC[C@H](C)[C@H]1C(=O)Nc2ccccc2CN1C(=O)N1CC(C(=O)O)C1` [Compound 249, 1-((S)-3-((S)-sec-butyl)-2-oxo-2,3,4,5-tetrahydro-1H-benzo[e][1,4]diazepine-4-carbonyl)azetidine-3-carboxylic acid], the AC1.4 rises from 3.00 µM to 4.51 µM (1.5-fold).

Compared with `CC[C@H](C)[C@H]1C(=O)Nc2ccccc2CN1C(=O)[C@H](C)NC(C)=O` [Compound 196, N-((S)-1-((S)-3-((S)-sec-butyl)-2-oxo-1,2,3,5-tetrahydro-4H-benzo[e][1,4]diazepin-4-yl)-1-oxopropan-2-yl)acetamide], `CC[C@H](C)[C@H]1C(=O)Nc2ccccc2CN1C(=O)N[C@@H](C)C(=O)NC` [Compound 232, (S)-3-((S)-sec-butyl)-N-((S)-1-(methylamino)-1-oxopropan-2-yl)-2-oxo-1,2,3,5-tetrahydro-4H-benzo[e][1,4]diazepine-4-carboxamide] is 1.7-fold higher in AC1.4: 2.09 µM for the first, 3.47 µM for the second.

First: CC[C@H](C)[C@H]1C(=O)Nc2ccccc2CN1C(=O)N1CCCn2c(C)nnc21 [Compound 241, (S)-3-((S)-sec-butyl)-4-(3-methyl-5,6,7,8-tetrahydro-[1,2,4]triazolo[4,3-a]pyrimidine-8-carbonyl)-1,3,4,5-tetrahydro-2H-benzo[e][1,4]diazepin-2-one]
Second: CC[C@H](C)[C@H]1C(=O)Nc2ccccc2CN1C(=O)[C@@H]1CCCN1 [Compound 177, (S)-4-(L-prolyl)-3-((S)-sec-butyl)-1,3,4,5-tetrahydro-2H-benzo[e][1,4]diazepin-2-one]
The AC1.4 of the first is 2-fold lower: 1.35 µM for the first, 2.64 µM for the second.

First: CC[C@H](C)[C@H]1C(=O)Nc2cncc(F)c2CN1C(=O)Nc1cc[nH]n1 [Compound 369]
Second: CC[C@H](C)[C@H]1C(=O)Nc2ccccc2CN1C(=O)NC1CN(C)C1 [Compound 138, (S)-3-((S)-sec-butyl)-N-(1-methylazetidin-3-yl)-2-oxo-1,2,3,5-tetrahydro-4H-benzo[e][1,4]diazepine-4-carboxamide]
The AC1.4 of the first is 2.2-fold lower: 0.24 µM for the first, 0.52 µM for the second.

Going from `CC[C@H](C)[C@H]1C(=O)Nc2ccccc2CN1c1nc(N)nn1C` [Compound 117, (S)-4-(3-amino-1-methyl-1H-1,2,4-triazol-5-yl)-3-((S)-sec-butyl)-1,3,4,5-tetrahydro-2H-benzo[e][1,4]diazepin-2-one] to `CC[C@H](C)[C@H]1C(=O)Nc2ccccc2CN1C(=O)N1CC(CO)C1` [Compound 102, (S)-3-((S)-sec-butyl)-4-(3-(hydroxymethyl)azetidine-1-carbonyl)-1,3,4,5-tetrahydro-2H-benzo[e][1,4]diazepin-2-one], the AC1.4 rises from 0.07 µM to 0.37 µM (5.3-fold).

`CC[C@H](C)[C@H]1C(=O)Nc2ccccc2CN1C(=O)NC1CCNCC1` [Compound 142, (S)-3-((S)-sec-butyl)-2-oxo-N-(piperidin-4-yl)-1,2,3,5-tetrahydro-4H-benzo[e][1,4]diazepine-4-carboxamide] gave an AC1.4 of 0.36 µM.
